Values quoted from earlier work in patent publication US20080021074A1, “Pharmaceutical Compositions and Related Methods of Treatment” (QUESTCOR PHARMACEUTICALS, INC., priority 2006, published 2008).
Counter-ions that a name gives are not always drawn.

What was measured:
[1] = tested on: CYP2B6; settings: primary human hepatocyte cultures, concentration-dependent
[2] = biological target: CYP2C19 (Homo sapiens, UniProt P33261)
[3] = tested on: monkeys; settings: single administration
[4] = tested on: mice; settings: single administration
[5] = tested on: CYP1A2; settings: primary human hepatocyte cultures, concentration-dependent
[6] = tested on: CYP3A4; settings: primary human hepatocyte cultures, concentration-dependent
[7] = tested on: spasticity; settings: clinical studies
[8] = tizanidine and baclofen combined
[9] = biological target: CYP1A2 (Homo sapiens, UniProt P05177); settings: in vitro
CYP1A2 (Homo sapiens, UniProt P05177), sequence (P05177 whole entry): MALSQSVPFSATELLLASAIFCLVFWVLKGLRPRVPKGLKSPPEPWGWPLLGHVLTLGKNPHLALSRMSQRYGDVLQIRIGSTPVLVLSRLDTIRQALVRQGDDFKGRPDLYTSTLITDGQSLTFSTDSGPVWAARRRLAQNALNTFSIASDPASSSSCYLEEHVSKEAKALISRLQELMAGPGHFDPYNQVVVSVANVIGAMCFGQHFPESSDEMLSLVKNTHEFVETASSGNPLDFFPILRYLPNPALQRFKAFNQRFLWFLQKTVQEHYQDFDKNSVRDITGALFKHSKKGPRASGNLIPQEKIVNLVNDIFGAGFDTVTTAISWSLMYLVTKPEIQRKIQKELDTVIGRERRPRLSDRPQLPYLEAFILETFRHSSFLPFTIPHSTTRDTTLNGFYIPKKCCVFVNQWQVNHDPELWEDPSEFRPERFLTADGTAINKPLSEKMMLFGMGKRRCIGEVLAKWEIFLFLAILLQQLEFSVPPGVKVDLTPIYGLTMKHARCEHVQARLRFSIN

CYP2C19, sequence (P33261 whole entry): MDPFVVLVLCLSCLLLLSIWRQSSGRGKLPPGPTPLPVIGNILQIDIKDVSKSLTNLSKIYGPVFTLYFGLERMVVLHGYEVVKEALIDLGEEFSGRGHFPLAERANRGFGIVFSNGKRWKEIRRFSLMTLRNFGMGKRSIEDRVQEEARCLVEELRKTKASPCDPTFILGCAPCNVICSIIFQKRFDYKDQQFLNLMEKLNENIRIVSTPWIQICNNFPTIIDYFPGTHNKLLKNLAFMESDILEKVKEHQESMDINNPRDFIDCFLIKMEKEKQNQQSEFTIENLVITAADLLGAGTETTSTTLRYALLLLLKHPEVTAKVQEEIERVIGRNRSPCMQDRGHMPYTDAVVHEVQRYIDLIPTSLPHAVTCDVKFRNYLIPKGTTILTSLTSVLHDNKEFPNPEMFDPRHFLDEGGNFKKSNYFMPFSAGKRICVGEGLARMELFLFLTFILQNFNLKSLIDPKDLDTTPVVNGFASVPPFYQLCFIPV

NC(=O)C[S+]([O-])C(c1ccccc1)c1ccccc1 (stereo not drawn) [Modafinil, 2-[(diphenylmethyl)sulfinyl]acetamide]
induction of CYP2B6 [1]: slightly induce | inhibition of CYP2C19 [2]: reversible inhibitors | nocturnal activity [3]: increased nocturnal activity | locomotor activity [4]: increased locomotor activity | induction of CYP1A2 [5]: slightly induce | induction of CYP3A4 [6]: slightly induce

Clc1ccc2nsnc2c1NC1=NCCN1 [Tizanidine, 5-chloro-4-(2-imidazolin-2-ylamino)-2,1,3-benzothiodiazole hydrochloride]
antispastic effect compared with diazepam and baclofen [7]: as effective as other antispastic agents | tolerability compared with diazepam and baclofen ([7]; especially incidence of debilitating muscle weakness): more favorable tolerability profile | pharmacokinetic interaction [8]: without significant pharmacokinetic interaction | metabolizing enzyme [9]: metabolized by CYP1A2

NCC(CC(=O)O)c1ccc(Cl)cc1 (stereo not drawn) [baclofen, 4-amino-3-(4-chlorophenyl)-butanoic acid]
pharmacokinetic interaction [8]: without significant pharmacokinetic interaction

NC(=O)CS(=O)(=O)C(c1ccccc1)c1ccccc1 [modafinil sulfone]
inhibition of CYP2C19 [2]: reversible inhibitors
